{"source": "patent US4032654A", "about": "“Water-soluble, liquid concentrates of S-methyl-[(methyl-carbamoyl)oxy]-thioacetimidate and methyl N', N'-dimethyl-N-[(methyl-carbamoyl)oxy]-1-thiooxamimidate” (priority 1975, dated 1977)", "key": {"physchem [1]": {"experiment": "physchem", "conditions": "for solubility: Oxamyl alone in solvent", "description": "Methomyl and oxamyl were added to various methanol:water solvent systems ranging from 100 wt. % CH3 OH to 30 wt. % CH3 OH:70 wt. % H2 O. […] The samples were equilibrated at -6° C. in a constant temperature freezer after which they were seeded with methomyl and oxamyl crystals to ensure crystallization of both materials. After crystal-liquid equilibrium was assured, liquid was removed at -6° C. and assayed for methomyl and oxamyl. Solids were also removed at -6° C., washed with hexane and dried. The solids were then dissolved in methanol to yield a 10 wt. % solution. This solution was evaluated by thin layer chromatography (TLC) to ensure the solids consisted of both methomyl and oxamyl.\nSolubility of Methomyl and Oxamyl 1:2.5 wt. ratio in CH3 OH:H2 O at -6° C.\nExample 3 was repeated by dissolving methomyl and oxamyl in a 1:2.5 weight ratio in the same solvent systems under the same conditions."}, "physchem [2]": {"experiment": "physchem", "conditions": "for solubility: Oxamyl alone in solvent", "description": "Methomyl and oxamyl were added to various methanol:water solvent systems ranging from 100% CH3 OH to 40% CH3 OH:60% H2 O. The methomyl and oxamyl were dissolved separately or combined on a 1:1 weight ratio in the solvent systems at room temperature at a concentration exceeding the solubility limit at -6° C. Each sample was seeded with methomyl and/or oxamyl at -6° C. and allowed to crystallize until equilibrium was established. The supernatant liquid of each sample was assayed for methomyl and/or oxamyl by liquid chromatography.", "remark": "listed apart in the source"}, "[3]": {"description": "Methomyl and/or oxamyl were added to a solvent system consisting of 60% cyclohexanone, 10% methanol and 30% water at room temperature at a concentration higher than the solubility limit at -6° C. The methomyl and oxamyl were added together, at weight ratios of 2:1, 1:1 and 1:2.5. The solutions were cooled to -6° C. and seeded with methomyl and/or oxamyl to initiate crystallization. The solutions remained at -6° C. until equilibrium was assured. The supernatant liquid in each sample was analyzed for methomyl and oxamyl by liquid chromatography."}, "physchem [4]": {"experiment": "physchem", "conditions": "for solubility: Oxamyl alone in solvent", "description": "Solubility of Methomyl and Oxamyl (2:1 wt. ratio) in CH3 OH/H2 O at -6° C.\nMethomyl and oxamyl were added to various methanol:water solvent systems ranging from 100 wt. % CH3 OH to 30 wt. % CH3 OH:70 wt. % H2 O. The methomyl and oxamyl were dissolved in a 2:1 weight ratio of 50 wt. % methomyl to 25 wt. % oxamyl in the solvent systems. The samples were equilibrated at -6° C. in a constant temperature freezer after which they were seeded with methomyl and oxamyl crystals to ensure crystallization of both materials. After crystal-liquid equilibrium was assured, liquid was removed at -6° C. and assayed for methomyl and oxamyl. Solids were also removed at -6° C., washed with hexane and dried. The solids were then dissolved in methanol to yield a 10 wt. % solution. This solution was evaluated by thin layer chromatography (TLC) to ensure the solids consisted of both methomyl and oxamyl.", "remark": "listed apart in the source"}, "[5]": {"description": "Methomyl and Oxamyl Solubility In Cyclohexanone, Cyclohexanol, CH3 OH and H2 O at -6° C.\nMethomyl and oxamyl were dissolved separately and in weight ratios of 1:1, 2:1 and 1:2.5 methomyl to oxamyl in a solvent system consisting of 30 wt. % cyclohexanone, 30 wt. % cyclohexanol, 30 wt. % water and 10 wt. % methanol. These solutions were equilibrated at -6° C. and seeded with methomyl and/or oxamyl crystals. The samples of liquid and solids remained at -6° C. until solid-liquid equilibrium was assured. A liquid sample was removed from each at -6° C. and assayed for methomyl and/or oxamyl. Solids were also isolated at -6° C., washed, dried and dissolved in CH3 OH to yield a 10% solution which was analyzed by TLC to ensure both methomyl and oxamyl crystals were present in the solids of the combination sample. All such solids contained both oxamyl and methomyl.\nSOLUBILITY OF METHOMYL AND OXAMYL (2:1, 1:1 and 1:2.5 Wt.\nRATIOS) IN CYCLOHEXANONE, CYCLOHEXANOL, CH3 OH AND H2 O", "remark": "listed apart in the source"}, "[6]": {"description": "Solubility of Methomyl and Oxamyl 80:20 Wt. Ratio Acetone:H2 O\nMethomyl and oxamyl were dissolved in a solvent system consisting of 80 wt. % acetone and 20 wt. % water separately and in 1:1, 2:1 and 1:2.5 wt. ratios of methomyl and oxamyl. These solutions were equilibrated at -6° C. and were seeded with methomyl and/or oxamyl. They remained at -6° C. until solid-liquid equilibrium was assured. Liquid was removed from each sample at -6° C. and assayed for methomyl and oxamyl. Solids were also removed at -6° C., washed, dried and dissolved in methanol to yield a 10 wt. % solution which was evaluated by TLC for oxamyl and methomyl.", "remark": "listed apart in the source"}}, "note": "Values joined by “and” are separate entries in the source; they are usually repeats but may differ in a detail not shown here. Equal entries are not always repeated. Where two headings read alike, the source gives them in different places."}
{"smiles": "CNC(=O)ON=C(SC)C(=O)N(C)C", "note": "[Oxamyl, methyl N',N'-dimethyl-N-[(methylcarbamoyl)oxy]-1-thiooxamimidate]", "values": [{"measurement": "Solubility, both actives in solvent: Oxamyl", "setting": "physchem [1]", "value": 72.3, "unit": "gms/100 gms"}, {"measurement": "solubility", "setting": "physchem [1]; 40/60 ch3oh/h2o, alone, -6° C.", "value": 209, "unit": "mg/mL"}, {"measurement": "solubility", "setting": "physchem [1]; 50/50 ch3oh/h2o, alone, -6° C.", "value": 291, "unit": "mg/mL"}, {"measurement": "solubility", "setting": "physchem [1]; 60/40 ch3oh/h2o, alone, -6° C.", "value": 396, "unit": "mg/mL"}, {"measurement": "solubility", "setting": "physchem [1]; 70/30 ch3oh/h2o, alone, -6° C.", "value": 423, "unit": "mg/mL"}, {"measurement": "solubility", "setting": "physchem [1]; 80/20 ch3oh/h2o, alone, -6° C.", "value": 448, "unit": "mg/mL"}, {"measurement": "solubility", "setting": "physchem [1]; 90/10 ch3oh/h2o, alone, -6° C.", "value": 404, "unit": "mg/mL"}, {"measurement": "Solubility, Oxamyl alone in solvent", "setting": "physchem [1]; alone, 100/0 CH3OH/H2O, -6° C.", "value": 33.3, "unit": "gms/100 gms"}, {"measurement": "Solubility, both actives in solvent: Oxamyl", "setting": "physchem [2]", "value": 80, "unit": "gms/100 gms"}, {"measurement": "solubility", "setting": "physchem [2]; 40/60 ch3oh/h2o, alone, -6° C.", "value": 209, "unit": "mg/mL"}, {"measurement": "solubility", "setting": "physchem [2]; 50/50 ch3oh/h2o, alone, -6° C.", "value": 290, "unit": "mg/mL"}, {"measurement": "solubility", "setting": "physchem [2]; 60/40 ch3oh/h2o, alone, -6° C.", "value": 397, "unit": "mg/mL"}, {"measurement": "solubility", "setting": "physchem [2]; 70/30 ch3oh/h2o, alone, -6° C.", "value": 422, "unit": "mg/mL"}, {"measurement": "solubility", "setting": "physchem [2]; 80/20 ch3oh/h2o, alone, -6° C.", "value": 447, "unit": "mg/mL"}, {"measurement": "solubility", "setting": "physchem [2]; 90/10 ch3oh/h2o, alone, -6° C.", "value": 406, "unit": "mg/mL"}, {"measurement": "Solubility, Oxamyl alone in solvent", "setting": "physchem [2]; alone, 100/0 CH3OH/H2O, -6° C.", "value": 33.3, "unit": "gms/100 gms"}, {"measurement": "Solubility when dissolved together in the solvents taught", "setting": "physchem [2]; summary of Examples 2-7", "value": "increases in solubility occur"}, {"measurement": "Solubility, both actives in solvent: Oxamyl", "setting": "[3]", "value": "84.8 gms/100 gms solvent and 80.1 gms/100 gms solvent and 82.7 gms/100 gms solvent"}, {"measurement": "Solubility, Oxamyl alone in solvent", "setting": "[3]; alone, 60% cyclohexanone, 10% methanol, 30% water, -6° C.", "value": 48.4, "unit": "gms/100 gms solvent"}, {"measurement": "Solubility, both actives in solvent: Oxamyl", "setting": "physchem [4]", "value": 113, "unit": "gms/100 gms"}, {"measurement": "solubility", "setting": "physchem [4]; 40/60 ch3oh/h2o, alone, -6° C.", "value": 209, "unit": "mg/mL"}, {"measurement": "solubility", "setting": "physchem [4]; 50/50 ch3oh/h2o, alone, -6° C.", "value": 290, "unit": "mg/mL"}, {"measurement": "solubility", "setting": "physchem [4]; 60/40 ch3oh/h2o, alone, -6° C.", "value": 397, "unit": "mg/mL"}, {"measurement": "solubility", "setting": "physchem [4]; 70/30 ch3oh/h2o, alone, -6° C.", "value": 422, "unit": "mg/mL"}, {"measurement": "solubility", "setting": "physchem [4]; 80/20 ch3oh/h2o, alone, -6° C.", "value": 447, "unit": "mg/mL"}, {"measurement": "solubility", "setting": "physchem [4]; 90/10 ch3oh/h2o, alone, -6° C.", "value": 406, "unit": "mg/mL"}, {"measurement": "Solubility, Oxamyl alone in solvent", "setting": "physchem [4]; alone, 100/0 CH3OH/H2O, -6° C.", "value": 33.3, "unit": "gms/100 gms"}, {"measurement": "Solubility change when dissolved in combination", "setting": "physchem [4]; methanol:water solvent systems, 2:1 wt. ratio dissolved initially, -6° C.", "value": "increased"}, {"measurement": "Solubility, both actives in solvent: Oxamyl", "setting": "[5]", "value": "83.0 gms/100 gms solvent and 63.7 gms/100 gms solvent and 61.8 gms/100 gms solvent"}, {"measurement": "Solubility, Oxamyl alone in solvent", "setting": "[5]; alone, 30% cyclohexanone, 30% cyclohexanol, 30% water, 10% methanol, -6° C.", "value": 41.5, "unit": "gms/100 gms solvent"}, {"measurement": "Solubility, both actives in solvent: Oxamyl", "setting": "[6]", "value": "84.6 gms/100 gms solvent and 79.3 gms/100 gms solvent and 82.8 gms/100 gms solvent"}, {"measurement": "Solubility, Oxamyl alone in solvent", "setting": "[6]; alone, 80:20 wt acetone/H2O, -6° C.", "value": 52.0, "unit": "gms/100 gms solvent"}]}
